Experimental data from patent publication US9012475B2, “Method for enhancing anti-tumor effect of a microtubule-targeting drug, and a method for treatment of tumor” (Taiho Pharmaceutical Co., Ltd., priority 2013, dated 2015).
“Also recorded” adds a separate entry of the source. Like-named read-outs stand apart in the source and are kept apart here.

Columns and labels:
[1] = then 24 hours later MK-5108 orally twice per day over 2 days; cited from earlier work
human Aurora A = human Aurora A (Homo sapiens (Human), UniProt O14965); assay: Measurement of Aurora A inhibitory activity (IMAP fluorescence polarization kinase assay); format: biochemical; conditions: ATP 5 μM, 25° C., 50 minutes
Chain of human Aurora A (O14965 whole entry): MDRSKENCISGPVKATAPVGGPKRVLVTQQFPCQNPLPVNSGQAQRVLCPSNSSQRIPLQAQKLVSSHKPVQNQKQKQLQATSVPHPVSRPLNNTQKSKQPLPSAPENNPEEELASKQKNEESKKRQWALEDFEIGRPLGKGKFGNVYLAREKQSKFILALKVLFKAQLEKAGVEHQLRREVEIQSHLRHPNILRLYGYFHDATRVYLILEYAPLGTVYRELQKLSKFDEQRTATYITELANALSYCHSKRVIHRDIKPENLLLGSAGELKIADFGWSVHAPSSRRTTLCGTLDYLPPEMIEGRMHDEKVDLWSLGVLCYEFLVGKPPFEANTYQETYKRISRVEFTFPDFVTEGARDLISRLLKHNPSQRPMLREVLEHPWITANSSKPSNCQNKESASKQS
Description: (§1) The inhibitory activities of a test compound against Aurora A and Aurora B were measured according to the following method.
Complementary DNA of human Aurora A was fused with a histidine tag at the amino terminal, inserted into an expression vector and highly expressed in Escherichia coli BL21-CodonPlus (DE3)-RIL strain. After Escherichia coli was recovered and lysed, human Aurora A protein fused with a histidine tag was allowed to bind to a nickel chelate column and eluted by imidazole from the column. An active fraction was desalted by a desalting column to obtain purified enzyme.
In measuring inhibitory activity of the compound, first, the test compound was serially diluted by dimethylsulfoxide (DMSO). […] To the mixture, IMAP (registered trade mark) Progressive Binding Reagent diluted 500× with IMAP (registered trade mark) Progressive Binding Buffer A (manufactured by Molecular Devices) was added to terminate the kinase reaction. […] Based on the obtained fluorescence polarization degree, the amount of phosphorylation reaction was obtained.

human Aurora B = human Aurora B (Homo sapiens (Human), UniProt Q96GD4); assay: Measurement of Aurora B kinase activity; format: biochemical; conditions: ATP 40 μM, 60 minutes
Chain of human Aurora B (Q96GD4 whole entry): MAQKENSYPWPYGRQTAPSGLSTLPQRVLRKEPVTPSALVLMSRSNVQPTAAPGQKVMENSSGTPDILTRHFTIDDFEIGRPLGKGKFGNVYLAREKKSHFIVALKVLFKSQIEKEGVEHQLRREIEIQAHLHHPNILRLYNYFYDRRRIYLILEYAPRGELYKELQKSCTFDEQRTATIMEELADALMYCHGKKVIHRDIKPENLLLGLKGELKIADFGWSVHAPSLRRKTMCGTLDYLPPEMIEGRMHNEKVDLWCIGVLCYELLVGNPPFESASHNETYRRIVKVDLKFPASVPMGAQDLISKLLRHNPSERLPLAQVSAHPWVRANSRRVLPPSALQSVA
Chain of human Aurora B (Q9NQS7 803-916 partner): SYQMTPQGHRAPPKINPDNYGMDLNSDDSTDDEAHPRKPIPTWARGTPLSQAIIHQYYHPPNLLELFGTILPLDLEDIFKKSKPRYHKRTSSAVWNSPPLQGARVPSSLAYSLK
Description: as §1
The concentration of the compound at which 50% of the phosphorylation reaction was suppressed was defined as IC50 value (nM).

[2] = Evaluation of oral absorption property; format: in vivo, BALE/cA mice; conditions: oral administration in 0.5% HPMC, plasma 0.5-6 hours, LCMS
Description: A test compound was suspended or dissolved in 0.5% HPMC and orally administered to BALE/cA mice. At the time points of 0.5, 1, 2, 4 and 6 hours after oral administration, blood was sampled from the back of the eye to obtain blood plasma. The concentration of the compound in the obtained blood plasma was measured by LCMS and evaluated for oral absorption property.

[3] = system: human-derived uterus cancer cell strain HeLa-luc; conditions: for number of CR cases: 5 rats
Text: Cells (1×10^7) of human-derived uterus cancer cell strain HeLa-luc (manufactured by PerkinElmer Co., Ltd.) having a luciferase gene introduced therein were subcutaneously grafted to the right abdomens of nude rats. At the time the volume of a tumor developed from grafted cells reached about 200 mm^3, the rats were divided into groups each consisting of 5 rats according to stratified randomization such that each group had almost the same tumor volume. […] To Group 2 and 3, paclitaxel was administered and, on the next day, Compound 1 (30 mg/kg) was orally administered twice per day for one day or 4 days (sequential administration, see FIG. 1 (A), Sequential treatment). To the rats of Group 4 and 5, paclitaxel was administered and, on the same day, Compound 1 (30 mg/kg) was orally administered twice per day for 2 days or 4 days (concurrent administration, see FIG. 1 (B), Concurrent treatment). Compound 1 was suspended or dissolved in 0.5% (w/v) hydroxypropyl methyl cellulose (HPMC). Paclitaxel was dissolved in Cremophor EL and anhydrous ethanol, diluted with physiological saline so as to obtain a predetermined concentration and put in use.
The presence or absence of a therapeutic effect was determined by measuring the major axis and minor axis of a tumor with time and obtaining a tumor volume (TV), relative tumor volume (RTV) and T/C (%) value (average relative tumor volume ratio of the treatment group to the control group) on day 10 after initiation of administration according to the following expressions. Tumor volume (TV)={(major axis)×(minor axis)^2}/2 Relative tumor volume (RTVn) on measurement day (n)=TVn/TV1 T/C(%)={(average RTVn of treatment group)/(average RTVn of control group)}×100
TV1 represents tumor volume at the administration initiation time
Furthermore, an individual in which a tumor disappeared was specified as CR (complete remission/complete response) and the number of cases was obtained.

[4] = system: human-derived lung cancer cell strain NCI-H460 (H460); assay: Schedule of administration in combination with paclitaxel, NCI-H460 subcutaneous graft; format: in vivo
Description: The study was performed according to the method in Example 1. Cells (1×10^7) of human-derived lung cancer cell strain NCI-H460 (H460) were subcutaneously grafted to right abdomens of nude mice. […] Group 1 was defined as a control group, Group 2 and 3 were defined as a paclitaxel single administration group and Compound 1 single administration group, respectively. Group 4 and 5 were defined as an administration group in combination with paclitaxel and Compound 1. Paclitaxel was intravenously administered in a dose of 60 mg/kg twice, i.e., day 1 and day 8 (Group 2, 4 and 5). In Group 3 and 5, Compound 1 was orally administered twice per day in a dose of 60 mg/kg, for 4 days from the next day of paclitaxel administration and for 4 days from day 9 of paclitaxel administration. In Group 4, Compound 1 was orally administered twice per day in a dose of 60 mg/kg from the next day of paclitaxel administration for 2 days and from day 9 for 2 days. In Group 3, 4 and 5, the dose per day of Compound 1 was 120 mg/kg/day. […]
Furthermore, the body weights of mice were measured with time and a body weight change rate (BWC) was computationally obtained according to the following expression. […]

[5] = system: human-derived lung cancer cell strain NCI-H460 (H460); assay: Schedule of administration in combination with docetaxel (Example 2 (2)); format: in vivo, nude mice
Description: The study was performed according to the method in Example 1, except that docetaxel was used in place of paclitaxel. Furthermore, administration of Compound 1 was initiated from the administration day of docetaxel. Group 1 was defined as a control group. Docetaxel was dissolved in anhydrous ethanol and Tween 80 and thereafter diluted with 5% glucose injection liquid and intravenously administered in a dose of 30 mg/kg twice, i.e., on day 1 and day 8 (Group 2 and 4). In Group 3 and 4, Compound 1 was orally administered twice per day in a dose of 60 mg/kg, from the administration day of docetaxel for 4 days and from day 8 of docetaxel administration for 4 days.
In Group 3 and 4, the dose of Compound 1 per day was 120 mg/kg/day. Note that, in FIG. 2 (B), Group 1 is represented by Control, Group 2 by Docetaxel alone, Group 3 by Compound 1 alone and Group 4 by Combo (4 days).

## O=C(O)[C@]1(Cc2cccc(Nc3nccs3)n2)CC[C@@H](Oc2cccc(Cl)c2F)CC1 [MK-5108]
[1]
  antitumor effect in combination with docetaxel: enhancement of an antitumor effect is confirmed

## Cc1cc(Nc2nc(CC3(C(=O)O)CCN(C(=O)c4cccc(Cl)c4Cl)CC3)ccc2F)n[nH]1 [Production Example 1, 1-(2,3-dichlorobenzoyl)-4-((5-fluoro-6-(5-methyl-1H-pyrazol-3-ylamino)pyridin-2-yl)methyl)piperidine-4-carboxylic acid]
Human Aurora A
  IC50: 0.4 nM
Human Aurora B
  IC50: 140 nM
[2]
  oral absorption property (concentration in blood plasma): satisfactory oral absorption property
[3]; Group 2: paclitaxel 10 mg/kg iv, from next day Compound 1 30 mg/kg po twice per day for one day (sequential)
  number of CR cases: no CR cases
[3]; Group 3: paclitaxel 10 mg/kg iv, from next day Compound 1 30 mg/kg po twice per day for 4 days (sequential)
  number of CR cases: 2
[3]; Group 3 and 5: paclitaxel 10 mg/kg iv plus Compound 1 30 mg/kg po bid for 4 days
  toxicity / side effect: no serious toxicity such as death was observed
[3]; Group 4: paclitaxel 10 mg/kg iv, from same day Compound 1 30 mg/kg po twice per day for 2 days (concurrent)
  number of CR cases: one
[3]; Group 5: paclitaxel 10 mg/kg iv, from same day Compound 1 30 mg/kg po twice per day for 4 days (concurrent)
  number of CR cases: 4
[4]; Group 4 and 5: paclitaxel 60 mg/kg iv plus Compound 1 60 mg/kg po bid for 2 or 4 days per cycle
  toxicity / side effect: no significant toxicity such as death was observed
[4]; paclitaxel 60 mg/kg iv day 1 and 8, Compound 1 60 mg/kg po bid for 4 days (Group 5) vs 2 days (Group 4) per 7-day cycle
  tumor volume, Combo (4 days) versus Combo (2 days): smaller than that of Group 4; also recorded: stronger antitumor enhancing effect
[5]; Group 4: docetaxel 30 mg/kg iv plus Compound 1 60 mg/kg po bid for 4 days per cycle
  toxicity / side effect: no significant toxicity such as death was observed
[5]; docetaxel 30 mg/kg iv day 1 and 8, Compound 1 60 mg/kg po bid for 4 days from day 1 and day 8
  antitumor effect (tumor volume), Combo (4 days): an antitumor effect is exerted
